Measured values published in patent publication EP0052964A1, “Adenine derivatives possessing pharmacological activity” (BEECHAM GROUP PLC, priority 1980, dated 1982).

Tested on: male rats (Sprague-Dawley from Tuck's)
Assay: hypocholesterolaemic and hypotriglyceridaemic effects in rats fed a sucrose-rich semisynthetic diet containing 0.25% cholesterol
Type: in vivo
Settings: percentage change from control values, compound at 0.1% in diet for 7 days
Procedure: The hypocholesterolaemic and hypotriglyceridaemic effects of 6-amino-9-[(2-hydroxy-3-thiomorpholino)propyl]purine (Compound 1) and 6-amino-9-([2-hydroxy-3-(2,6-cis-dimethylmorpholino)]propyl)-purine (Compound 2) were assessed as follows.
Groups of 8 male rats (Sprague-Dawley from Tuck's) weighing 80-100g were adapted to a sucrose-rich semisynthetic diet containing 0.25% cholesterol by progressive dilution over 7 days of a powdered commercially available diet (Oxoid). Compounds were then added to the semisynthetic diet at the level of 0.1% and these diets were fed for 7 days. The rats were then killed and the serum total cholesterol and triglyceride were measured by a Technicon Auto-Analyser. The results are expressed as percentage change from control values.

Nc1ncnc2c1ncn2CC(O)CN1CCSCC1 (stereo not drawn) [Compound 1, 6-amino-9-[(2-hydroxy-3-thiomorpholino)propyl]-purine]
Liver wt. as % body wt.: +1%
Serum Triglyceride (* = statistically significant): -8 percentage
Serum Cholesterol (serum total cholesterol, * = statistically significant): -57* percentage
